The values that follow come from ChEMBL document CHEMBL1201862, “PubChem BioAssay data set” (2004).

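Briefly, cells in 96-well plates were exposed to five compound concentrations for 48 h, and endpoints were estimated by linear interpolation. At the GI50, growth is halved.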 Calls of active or inactive are those of the source. No stated cut-off is given here; in the data, active = GI50 up to about 1.1 µM and inactive = higher. *1 amine or outer side, *2 acyl side, *3 side chain or, on linkers, in order; H or OH if unused. Where a SMILES comes first, the peptide text is derived from it. Bridges are numbered along the chain shown (N, C = ends). [ ]: non-standard residue; d: D form. X36 = CC[C@H](C)[C@@H](N[*:1])[C@@H](O)CC(=O)O[C@H](C(=O)[C@H](C)C(=O)[*:2])C(C)C; NMeY = CN[C@@H](Cc1ccc(O)cc1)C(=O)O

Among the test systems are 786-0; CCRF-CEM; HCT-116; HOP-92; IGROV-1; KM12; MDA-N; NCI-H226; NCI-H23; OVCAR-3; OVCAR-5; OVCAR-8; RPMI-8226; SNB-19; A498; Hs-578T; SF-268; MCF7.
Common to all, as to assay: NCI tumour cell line growth inhibition, 48 h

Take `CC1CCC(C(=O)O)(C(Br)C(=O)O)CC1` (configuration not stated): the GI50 in the test with 786-0, with CCRF-CEM, with HCT-116, in the test on HOP-92, with IGROV-1 and in the test on KM12 was > 100 µM (inactive) in each case. Moreover, the GI50 with MDA-N, with NCI-H226, in the test with NCI-H23, in the test on OVCAR-3, in the test with OVCAR-5 and with OVCAR-8 was > 100 µM (inactive) each time. Besides, the GI50 in the test with RPMI-8226 and with SNB-19 was > 100 µM (inactive) throughout.

With `Cc1ccc(-n2cc(-c3ccc(Cl)cc3)c3c(NNC(=S)NCc4ccccc4)ncnc32)cc1`, the GI50 was 9.77 µM (inactive) in the test on 786-0; 23.6 µM (inactive) with A498; 2.77 µM (inactive) with CCRF-CEM; 4.66 µM (inactive) in the test on HCT-116; 25.4 µM (inactive) in the test on HOP-92; 60.7 µM (inactive) in the test on Hs-578T. Also, the GI50 was 12.2 µM (inactive) with IGROV-1; 3.66 µM (inactive) in the test with KM12; 14.9 µM (inactive) in the test on MDA-N; 92.7 µM (inactive) in the test on NCI-H226; 13.5 µM (inactive) in the test on NCI-H23; 4.56 µM (inactive) in the test on OVCAR-3. For the same compound, the GI50 in the test on OVCAR-5 is 11.3 µM (inactive); with OVCAR-8 it was 6.22 µM (inactive); in the test with RPMI-8226 it was 9.29 µM (inactive); with SF-268 it was 8.53 µM (inactive); with SNB-19, 23.3 µM (inactive).

Consider `CC(C)(CO)NC(=O)c1cccs1`, for which the GI50 in the test with 786-0, with CCRF-CEM, in the test on HCT-116, with HOP-92, in the test on IGROV-1 and in the test with KM12 was > 100 µM (inactive) throughout. In addition, the GI50 in the test on MCF7, in the test with NCI-H23, with OVCAR-3, in the test with OVCAR-5, in the test with OVCAR-8 and with RPMI-8226 was > 100 µM (inactive) each time. For the same compound, the GI50 with SF-268 and in the test on SNB-19 was > 100 µM (inactive) each time.

In the case of `CC[C@H](C)[C@H]1NC(=O)[C@@H](N)[C@@H](C)OC(=O)[C@H](Cc2ccc(OC)cc2)N(C)C(=O)[C@@H]2CCCN2C(=O)[C@H](CC(C)C)NC(=O)[C@@H](C)C(=O)[C@H](C(C)C)OC(=O)C[C@@H]1O` (H-T[X36]LP[NMeY](Me); ester 1-C), the GI50 is 93.8 µM (inactive) with 786-0; 22.3 µM (inactive) with CCRF-CEM; 12.2 µM (inactive) with Hs-578T; 10.1 µM (inactive) with IGROV-1; 9.35 µM (inactive) in the test with KM12; 33.7 µM (inactive) in the test with MCF7. In addition, the GI50 is 37.2 µM (inactive) with NCI-H226; 35.4 µM (inactive) with NCI-H23; 20.6 µM (inactive) with OVCAR-3; 31.5 µM (inactive) in the test on OVCAR-5; 50.7 µM (inactive) with OVCAR-8; 12.7 µM (inactive) in the test on RPMI-8226. The GI50 in the test with SF-268 is 49.5 µM (inactive); in the test with SNB-19, 28.7 µM (inactive).

`CN(C)c1nc(N)nc(CCl)n1`: the GI50 in the test with 786-0 is 22.3 µM (inactive); in the test on A498, 27.9 µM (inactive); in the test on CCRF-CEM it was 17.4 µM (inactive); with HCT-116, 54.8 µM (inactive); with HOP-92, 20.7 µM (inactive); with Hs-578T, 25.4 µM (inactive). Also, the GI50 in the test on IGROV-1 is 13.4 µM (inactive); in the test with KM12, 28.6 µM (inactive); in the test with MCF7, 40.2 µM (inactive); in the test on NCI-H226, 36.8 µM (inactive); in the test on NCI-H23, 24.5 µM (inactive); in the test on OVCAR-3 it was 17.5 µM (inactive). The GI50 is 65.9 µM (inactive) with OVCAR-5; 35.5 µM (inactive) with OVCAR-8; 46 µM (inactive) in the test on RPMI-8226; 27.2 µM (inactive) in the test on SF-268; > 100 µM (inactive) in the test on SNB-19.

Regarding `O=C(COc1ccc(OCC(=O)N2C(=O)CN(c3ccc(Cl)cc3)C2=S)cc1)N1C(=O)CN(c2ccc(Cl)cc2)C1=S`, the GI50 was 22.9 µM (inactive) in the test with 786-0; 22.1 µM (inactive) with A498; 15.7 µM (inactive) in the test on HCT-116; 21.8 µM (inactive) with HOP-92; 26.6 µM (inactive) in the test with IGROV-1; 18.9 µM (inactive) with KM12. Also, the GI50 in the test with MCF7 is 34 µM (inactive); in the test with MDA-N, 29.9 µM (inactive); with NCI-H226, 23.9 µM (inactive); in the test with NCI-H23, 32.5 µM (inactive); with OVCAR-5, 36.1 µM (inactive); in the test on RPMI-8226, 21.2 µM (inactive). The values for the GI50 in the test with SF-268 and in the test on SNB-19 were 27.2 µM (inactive) and 24.4 µM (inactive), respectively.

As for `S=C=Nc1ccc(CSc2nc3ccccc3[nH]2)cc1`, the GI50 in the test with 786-0 was 19.9 µM (inactive); with A498, 23 µM (inactive); in the test with CCRF-CEM it was 29.5 µM (inactive); with HCT-116, 24 µM (inactive); with HOP-92 it was 16.8 µM (inactive); in the test with Hs-578T, 41.6 µM (inactive). Also, the GI50 was 18.2 µM (inactive) in the test with IGROV-1; 17.5 µM (inactive) in the test on KM12; 15.9 µM (inactive) in the test with MDA-N; 17.6 µM (inactive) with NCI-H23; 18.2 µM (inactive) in the test on OVCAR-5; 17.8 µM (inactive) in the test with OVCAR-8. The GI50 is 23.2 µM (inactive) in the test with RPMI-8226, 17 µM (inactive) in the test on SF-268 and 25.9 µM (inactive) with SNB-19.

Consider `CCSc1[nH]c(Nc2nc(-c3ccccc3)n(-c3ccccc3)n2)c(C(N)=O)c1C(N)=O`, for which the GI50 with 786-0, in the test on CCRF-CEM, in the test with HOP-92, with IGROV-1, in the test with KM12 and in the test on MCF7 was > 10 µM (inactive) each time. The GI50 in the test on MDA-N was > 10 µM (inactive); in the test on NCI-H23, > 10 µM (inactive); in the test on OVCAR-8, 6.64 µM (inactive); with RPMI-8226 it was > 10 µM (inactive); with SF-268 it was > 10 µM (inactive).

For `O=C(CSCC(=O)N/N=C\c1ccc(O)c(O)c1O)N/N=C\c1ccc(O)c(O)c1O`, the GI50 in the test with 786-0 was 2.01 µM (inactive); with A498, 29.7 µM (inactive); with CCRF-CEM it was 1.73 µM (inactive); in the test on HCT-116, 3.37 µM (inactive); with HOP-92 it was 31 µM (inactive); in the test on Hs-578T it was 30.8 µM (inactive). The GI50 in the test on IGROV-1 was 19.8 µM (inactive); in the test with KM12, 18.3 µM (inactive); in the test on MCF7, 3.8 µM (inactive); in the test on NCI-H226 it was 26.2 µM (inactive); in the test on NCI-H23, 1.69 µM (inactive); in the test on OVCAR-3, 3.38 µM (inactive). The GI50 was 2.31 µM (inactive) in the test on OVCAR-8, 2.3 µM (inactive) with RPMI-8226, 29.5 µM (inactive) in the test with SF-268 and 29.4 µM (inactive) in the test on SNB-19.

Consider `O=C(CCN1CCCCC1CO)Nc1ccc2c(c1)C(=O)c1ccc(NC(=O)CCN3CCCCC3CO)cc1C2=O` (configuration not stated), for which the GI50 with 786-0 was 1.98 µM (inactive); with A498, 2.25 µM (inactive); with CCRF-CEM, 3.61 µM (inactive); in the test on HCT-116, 7.38 µM (inactive); with HOP-92, 15.5 µM (inactive); in the test with IGROV-1, 9.68 µM (inactive). Further, the GI50 in the test on KM12 was 4.34 µM (inactive); with NCI-H226, 18.8 µM (inactive); in the test on NCI-H23, 17 µM (inactive); in the test with OVCAR-5 it was 18.7 µM (inactive); in the test on OVCAR-8, 6.73 µM (inactive); in the test on RPMI-8226, 13.2 µM (inactive). Moreover, the GI50 is 10 µM (inactive) with SF-268 and 11 µM (inactive) in the test on SNB-19.

`CCOC(=O)c1nc2ccc(C(F)(F)F)cc2nc1Nc1ccc(OC)cc1`: the GI50 was 25.8 µM (inactive) in the test with 786-0; 44.8 µM (inactive) in the test with A498; > 100 µM (inactive) with CCRF-CEM; 56.4 µM (inactive) in the test on HCT-116; 12 µM (inactive) in the test with HOP-92; 35.2 µM (inactive) in the test on Hs-578T. Also, the GI50 with IGROV-1 is 36.6 µM (inactive); in the test on KM12, > 100 µM (inactive); in the test on MCF7, > 100 µM (inactive); with NCI-H226, 32.5 µM (inactive); with NCI-H23, 49.1 µM (inactive); in the test with OVCAR-3, 27.7 µM (inactive). The GI50 is > 100 µM (inactive) in the test with OVCAR-5; > 100 µM (inactive) in the test on OVCAR-8; > 100 µM (inactive) in the test with RPMI-8226; 46.2 µM (inactive) with SF-268; 33.6 µM (inactive) in the test with SNB-19.

For the compound `COC(=O)c1cc2c(cc1Cl)Sc1nnc(Nc3ccccc3)n1S2(=O)=O`, the GI50 is 4.18 µM (inactive) in the test on 786-0; 5.55 µM (inactive) in the test on A498; 2.3 µM (inactive) in the test with CCRF-CEM; 3.61 µM (inactive) with HCT-116; 1.42 µM (inactive) with HOP-92; 3.1 µM (inactive) with Hs-578T. The GI50 is 0.351 µM (active) in the test on IGROV-1; 2.71 µM (inactive) with KM12; 2.86 µM (inactive) in the test on MCF7; 2.45 µM (inactive) with NCI-H226; 2.34 µM (inactive) in the test with NCI-H23; 1.75 µM (inactive) in the test with OVCAR-3. The GI50 in the test with OVCAR-5 was 7.93 µM (inactive); in the test with OVCAR-8, 3.58 µM (inactive); with RPMI-8226, 1.62 µM (inactive); with SF-268, 2.26 µM (inactive); in the test with SNB-19 it was 2.28 µM (inactive).

For the compound `CC(=O)O[C@H]1CCC2[C@@H]3CCC4Nc5oncc5C[C@]4(C)C3CC[C@@]21C` (some centres not stated), the GI50 was 6.5 µM (inactive) with 786-0; 4.62 µM (inactive) in the test on A498; 3.67 µM (inactive) in the test with CCRF-CEM; 6.49 µM (inactive) with HCT-116; > 10 µM (inactive) in the test on HOP-92; > 10 µM (inactive) with IGROV-1. Further, the GI50 with KM12 was > 10 µM (inactive); in the test with MCF7, 8.55 µM (inactive); in the test on MDA-N it was > 10 µM (inactive); in the test with NCI-H226 it was > 10 µM (inactive); with NCI-H23, > 10 µM (inactive); in the test with OVCAR-3 it was 2.55 µM (inactive). Moreover, the GI50 in the test with OVCAR-5, in the test on OVCAR-8, in the test with RPMI-8226, in the test with SF-268 and in the test on SNB-19 was > 10 µM (inactive) each time.
